Test systems include MOLT-4 leukemia; OVCAR-5 ovarian; HT29 colon; COLO 205 colon; EKVX NSCLC; ACHN renal; SNB-19 CNS; SNB-75 CNS; RXF 393 renal.
Holding throughout (assay): NCI tumour cell line growth inhibition, 48 h

“And” between values parts separate entries of the source, which are not always exact repeats. Identical values can stand only once.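 Protocol summary: plate cells (96-well), add compound at 5 concentrations, incubate 48 h, interpolate endpoints linearly. GI50 marks 50% less growth. TGI denotes the concentration required for complete inhibition of growth.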

Take `O=C1C(Cl)=C(NCCN2CCOCC2)C(=O)c2ncccc21`: the GI50 with MOLT-4 leukemia was 2.24 µM; in the assay on COLO 205 colon it was 1.61 µM; in the assay on ACHN renal, 1.45 µM; in the assay with SNB-19 CNS, 1.99 µM; in the assay on SNB-75 CNS it was 1.67 µM; in the assay on RXF 393 renal, 1.66 µM. Moreover, the TGI is 4.01 µM and 5.27 µM in the assay with MOLT-4 leukemia; 3.59 µM and 3.56 µM in the assay with OVCAR-5 ovarian; 6.74 µM in the assay with HT29 colon; 3.43 µM with COLO 205 colon; 3.41 µM and 3.6 µM in the assay with EKVX NSCLC; 7.29 µM and 2.91 µM in the assay on ACHN renal. Further, the TGI with SNB-19 CNS was 3.15 µM and 4.01 µM; in the assay with SNB-75 CNS, 2.85 µM and 3.58 µM; in the assay with RXF 393 renal, 3.38 µM and 3.06 µM.

`COc1ccc2nc3c(C(=O)NCCN(C)C)cccc3nc2c1`: the TGI in the assay with MOLT-4 leukemia was > 100 µM; in the assay with OVCAR-5 ovarian it was 81.3 µM; in the assay with HT29 colon, 28.8 µM; with COLO 205 colon, 22.9 µM; with EKVX NSCLC, 15.7 µM; in the assay with ACHN renal it was > 100 µM. Further, the TGI is 37.9 µM with SNB-19 CNS, 25.5 µM in the assay on SNB-75 CNS and > 1 µM with RXF 393 renal.

In the case of `O=C(O)/C=C(\c1nc2ccc([N+](=O)[O-])cc2[nH]1)c1cc(Cl)ccc1O`, the GI50 was 2.26 µM in the assay with MOLT-4 leukemia; 5.29 µM in the assay on OVCAR-5 ovarian; 3.51 µM in the assay with HT29 colon; 2.87 µM in the assay with COLO 205 colon; 2.44 µM in the assay on EKVX NSCLC; 2.38 µM with ACHN renal. Besides, the figures for the GI50 with SNB-19 CNS, in the assay with SNB-75 CNS and in the assay on RXF 393 renal were 3.5 µM, 3.14 µM and 3.55 µM, respectively. In addition, the TGI in the assay on MOLT-4 leukemia was determined as 9.7 µM; with OVCAR-5 ovarian it was 43.3 µM; in the assay on HT29 colon, 14.4 µM; in the assay with COLO 205 colon, 11.2 µM; with EKVX NSCLC, 28.2 µM; in the assay on ACHN renal, 10.6 µM. The results for the TGI with SNB-19 CNS, in the assay on SNB-75 CNS and in the assay with RXF 393 renal were > 100 µM, 27.6 µM and 21.2 µM, respectively.

`CCCC(=O)OCC1OC(n2cnc3c(=S)nc[nH]c32)C(OC(=O)CCC)C1OC(=O)CCC` (configuration not stated): the GI50 in the assay with MOLT-4 leukemia is 3.06 µM; in the assay with OVCAR-5 ovarian it was 4.76 µM; with HT29 colon it was 3.63 µM; in the assay on COLO 205 colon, 4.57 µM; in the assay on EKVX NSCLC, 35 µM; in the assay with ACHN renal it was 6.15 µM. For the same compound, the GI50 in the assay with SNB-19 CNS is 46.4 µM; in the assay on SNB-75 CNS it was 4.04 µM; with RXF 393 renal it was 26 µM. Further, the TGI with MOLT-4 leukemia is 39.1 µM; in the assay with OVCAR-5 ovarian, > 100 µM; in the assay with HT29 colon it was > 100 µM; with COLO 205 colon it was 18.9 µM; with EKVX NSCLC it was > 100 µM; in the assay with ACHN renal, > 100 µM. Moreover, the TGI with SNB-19 CNS, with SNB-75 CNS and in the assay on RXF 393 renal was > 100 µM each time.

With `CCC[CH2][Sn]1([CH2]CCC)[O]C(=O)CN=Cc2c(ccc3ccccc23)[O]1`, the GI50 in the assay on MOLT-4 leukemia was 0.319 µM; with OVCAR-5 ovarian, 1.93 µM; with HT29 colon, 1.08 µM; in the assay with COLO 205 colon, 0.401 µM; in the assay with EKVX NSCLC, 0.552 µM; in the assay on ACHN renal, 0.319 µM. Further, the GI50 was 0.229 µM in the assay with SNB-19 CNS, 0.295 µM in the assay on SNB-75 CNS and 0.136 µM in the assay with RXF 393 renal. Also, the TGI in the assay with MOLT-4 leukemia came out at 1.14 µM; in the assay with OVCAR-5 ovarian it was 3.35 µM; in the assay with HT29 colon, 2.36 µM; in the assay with COLO 205 colon, 1.47 µM; with EKVX NSCLC, 1.86 µM; in the assay with ACHN renal it was 1.05 µM. For the same compound, the TGI with SNB-19 CNS came out at 0.526 µM; with SNB-75 CNS, 1.03 µM; in the assay with RXF 393 renal, 0.318 µM.

Consider `O=C(CC1(O)C(=O)Nc2ccccc21)c1ccncc1` (configuration not stated), for which the TGI with MOLT-4 leukemia, with OVCAR-5 ovarian, in the assay with HT29 colon, in the assay with COLO 205 colon, with EKVX NSCLC and in the assay with ACHN renal was > 100 µM each time. Also, the TGI in the assay on SNB-19 CNS, in the assay with SNB-75 CNS and in the assay with RXF 393 renal was > 100 µM throughout.

For the origin of these results see PubChem BioAssay (NCI).
